Assay results published in patent US10670605B2, “Cysteine reactive probes and uses thereof” (The Scripps Research Institute, priority 2015, dated 2020).

Key:
Assay in all cases: Competitive isoTOP-ABPP in situ (fragment-treated cells)
Assay type in all cases: cell-based
Details in all cases: 200 μM, insitu, 231
[1] = target: cysteines in MDA-MB-231 and Ramos cells (Homo sapiens, UniProt Q96EY5)
[2] = target: T1, cysteines in MDA-MB-231 and Ramos cells (Homo sapiens, UniProt P51649)
T1 sequence (P51649 48-535): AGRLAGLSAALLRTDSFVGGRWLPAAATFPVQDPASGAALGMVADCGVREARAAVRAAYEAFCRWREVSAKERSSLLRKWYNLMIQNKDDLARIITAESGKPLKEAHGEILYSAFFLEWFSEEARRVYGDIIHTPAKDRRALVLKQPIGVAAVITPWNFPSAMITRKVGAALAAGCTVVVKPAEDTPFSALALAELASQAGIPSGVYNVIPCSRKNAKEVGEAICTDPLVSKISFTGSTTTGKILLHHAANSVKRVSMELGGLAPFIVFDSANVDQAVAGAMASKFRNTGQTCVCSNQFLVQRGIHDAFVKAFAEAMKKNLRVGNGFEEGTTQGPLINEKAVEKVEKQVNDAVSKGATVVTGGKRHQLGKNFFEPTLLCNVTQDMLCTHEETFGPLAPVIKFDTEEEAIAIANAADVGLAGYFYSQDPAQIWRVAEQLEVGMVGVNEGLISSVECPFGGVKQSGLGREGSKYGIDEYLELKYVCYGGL

[3] = target: cysteines in MDA-MB-231 and Ramos cells (Homo sapiens, UniProt O75362)
[4] = target: T2, cysteines in MDA-MB-231 and Ramos cells (Homo sapiens, UniProt O43175)
T2 sequence (O43175 1-533): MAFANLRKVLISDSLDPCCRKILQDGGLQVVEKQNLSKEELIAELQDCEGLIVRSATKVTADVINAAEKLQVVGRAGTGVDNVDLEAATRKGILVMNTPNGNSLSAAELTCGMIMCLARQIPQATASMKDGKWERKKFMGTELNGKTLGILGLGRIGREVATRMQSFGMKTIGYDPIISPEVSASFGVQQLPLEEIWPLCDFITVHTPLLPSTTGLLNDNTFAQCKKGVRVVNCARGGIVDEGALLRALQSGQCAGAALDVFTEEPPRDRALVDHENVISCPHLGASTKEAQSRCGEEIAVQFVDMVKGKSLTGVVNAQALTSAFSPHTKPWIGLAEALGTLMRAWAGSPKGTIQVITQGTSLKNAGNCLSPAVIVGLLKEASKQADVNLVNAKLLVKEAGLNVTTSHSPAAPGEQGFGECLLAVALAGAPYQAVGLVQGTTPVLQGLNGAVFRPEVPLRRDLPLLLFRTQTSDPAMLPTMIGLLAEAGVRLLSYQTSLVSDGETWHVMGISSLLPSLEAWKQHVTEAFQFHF

[5] = target: cysteines in MDA-MB-231 and Ramos cells (Homo sapiens, UniProt P27708)
[6] = target: cysteines in MDA-MB-231 and Ramos cells (Homo sapiens, UniProt Q9BRJ7)
[7] = target: T3, cysteines in MDA-MB-231 and Ramos cells (Homo sapiens, UniProt P55265)
T3 sequence (P55265 1-1226): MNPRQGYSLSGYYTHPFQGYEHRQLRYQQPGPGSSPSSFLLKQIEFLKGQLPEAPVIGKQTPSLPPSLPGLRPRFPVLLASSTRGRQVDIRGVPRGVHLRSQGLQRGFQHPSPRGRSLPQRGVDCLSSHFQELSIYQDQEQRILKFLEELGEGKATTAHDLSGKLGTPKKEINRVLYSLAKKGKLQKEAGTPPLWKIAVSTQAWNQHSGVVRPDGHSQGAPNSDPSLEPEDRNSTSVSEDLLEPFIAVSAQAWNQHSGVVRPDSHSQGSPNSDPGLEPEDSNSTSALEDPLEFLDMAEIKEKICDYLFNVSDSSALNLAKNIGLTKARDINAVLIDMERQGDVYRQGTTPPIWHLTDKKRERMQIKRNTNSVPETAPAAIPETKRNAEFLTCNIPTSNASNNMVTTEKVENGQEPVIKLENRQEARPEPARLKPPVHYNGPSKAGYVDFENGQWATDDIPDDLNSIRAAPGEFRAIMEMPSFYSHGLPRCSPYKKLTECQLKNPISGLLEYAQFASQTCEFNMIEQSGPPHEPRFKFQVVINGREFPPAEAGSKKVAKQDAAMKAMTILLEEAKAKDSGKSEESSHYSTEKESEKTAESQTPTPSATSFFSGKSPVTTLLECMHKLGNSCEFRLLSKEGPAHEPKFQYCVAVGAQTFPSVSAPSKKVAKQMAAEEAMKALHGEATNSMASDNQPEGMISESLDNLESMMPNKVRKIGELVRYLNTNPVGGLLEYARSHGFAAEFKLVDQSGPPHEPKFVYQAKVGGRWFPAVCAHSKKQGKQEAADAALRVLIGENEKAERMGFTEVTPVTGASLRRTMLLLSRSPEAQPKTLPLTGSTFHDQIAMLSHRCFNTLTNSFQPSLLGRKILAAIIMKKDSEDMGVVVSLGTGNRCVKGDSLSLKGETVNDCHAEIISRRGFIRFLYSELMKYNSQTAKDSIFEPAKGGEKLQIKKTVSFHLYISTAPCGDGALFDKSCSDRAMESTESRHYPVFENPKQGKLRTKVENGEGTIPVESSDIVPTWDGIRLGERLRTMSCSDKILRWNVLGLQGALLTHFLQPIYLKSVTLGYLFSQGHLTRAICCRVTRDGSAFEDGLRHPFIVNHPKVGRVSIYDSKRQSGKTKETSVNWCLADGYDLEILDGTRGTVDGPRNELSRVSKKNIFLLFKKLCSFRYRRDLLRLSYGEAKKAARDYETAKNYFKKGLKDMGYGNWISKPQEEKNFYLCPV

[8] = target: T4, cysteines in MDA-MB-231 and Ramos cells (Homo sapiens, UniProt Q9NQ88)
T4 sequence (Q9NQ88 1-270): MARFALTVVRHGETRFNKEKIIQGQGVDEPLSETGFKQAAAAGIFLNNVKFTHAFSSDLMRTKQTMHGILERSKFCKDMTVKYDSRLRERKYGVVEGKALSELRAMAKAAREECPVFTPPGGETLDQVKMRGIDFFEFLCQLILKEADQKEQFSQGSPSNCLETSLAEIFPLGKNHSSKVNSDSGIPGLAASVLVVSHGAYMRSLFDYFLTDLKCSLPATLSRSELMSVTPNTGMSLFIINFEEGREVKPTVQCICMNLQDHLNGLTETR

Chain of cysteines in MDA-MB-231 and Ramos cells (Homo sapiens, UniProt O75362) (O75362 whole entry): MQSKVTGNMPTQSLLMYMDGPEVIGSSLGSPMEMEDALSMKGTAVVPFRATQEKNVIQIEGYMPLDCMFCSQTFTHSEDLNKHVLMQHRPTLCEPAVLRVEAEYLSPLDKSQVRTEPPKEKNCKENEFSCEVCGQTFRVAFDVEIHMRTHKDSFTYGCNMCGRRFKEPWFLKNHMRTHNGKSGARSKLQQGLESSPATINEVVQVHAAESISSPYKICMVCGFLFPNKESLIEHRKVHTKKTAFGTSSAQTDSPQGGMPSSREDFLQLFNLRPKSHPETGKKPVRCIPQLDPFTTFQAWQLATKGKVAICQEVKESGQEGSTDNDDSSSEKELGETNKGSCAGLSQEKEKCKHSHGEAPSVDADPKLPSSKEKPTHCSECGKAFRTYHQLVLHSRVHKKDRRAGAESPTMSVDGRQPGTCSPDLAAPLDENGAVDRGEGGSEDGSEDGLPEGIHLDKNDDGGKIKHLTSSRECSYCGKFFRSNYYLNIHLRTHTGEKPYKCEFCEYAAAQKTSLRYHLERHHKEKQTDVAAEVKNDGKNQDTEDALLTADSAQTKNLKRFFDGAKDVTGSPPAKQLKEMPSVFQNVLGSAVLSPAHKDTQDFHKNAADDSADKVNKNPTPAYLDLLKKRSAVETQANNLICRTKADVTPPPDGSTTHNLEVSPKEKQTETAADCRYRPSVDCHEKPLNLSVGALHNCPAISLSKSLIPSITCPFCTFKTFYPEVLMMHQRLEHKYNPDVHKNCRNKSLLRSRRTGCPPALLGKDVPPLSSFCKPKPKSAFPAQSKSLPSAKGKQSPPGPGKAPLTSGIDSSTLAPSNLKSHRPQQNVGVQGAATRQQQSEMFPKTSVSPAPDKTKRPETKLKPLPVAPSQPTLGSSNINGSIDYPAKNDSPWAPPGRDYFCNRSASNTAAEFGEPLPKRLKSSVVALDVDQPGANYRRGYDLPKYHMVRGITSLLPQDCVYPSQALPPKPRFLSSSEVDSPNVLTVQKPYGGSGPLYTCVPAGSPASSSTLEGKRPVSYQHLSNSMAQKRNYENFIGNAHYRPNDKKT
Chain of cysteines in MDA-MB-231 and Ramos cells (Homo sapiens, UniProt Q9BRJ7) (Q9BRJ7 whole entry): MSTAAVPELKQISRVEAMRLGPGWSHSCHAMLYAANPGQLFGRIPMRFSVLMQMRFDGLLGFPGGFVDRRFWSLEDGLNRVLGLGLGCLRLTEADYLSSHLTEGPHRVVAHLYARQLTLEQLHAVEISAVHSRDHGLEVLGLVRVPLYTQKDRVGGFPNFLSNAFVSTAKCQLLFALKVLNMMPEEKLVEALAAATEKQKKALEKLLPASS
Chain of cysteines in MDA-MB-231 and Ramos cells (Homo sapiens, UniProt P27708) (P27708 whole entry): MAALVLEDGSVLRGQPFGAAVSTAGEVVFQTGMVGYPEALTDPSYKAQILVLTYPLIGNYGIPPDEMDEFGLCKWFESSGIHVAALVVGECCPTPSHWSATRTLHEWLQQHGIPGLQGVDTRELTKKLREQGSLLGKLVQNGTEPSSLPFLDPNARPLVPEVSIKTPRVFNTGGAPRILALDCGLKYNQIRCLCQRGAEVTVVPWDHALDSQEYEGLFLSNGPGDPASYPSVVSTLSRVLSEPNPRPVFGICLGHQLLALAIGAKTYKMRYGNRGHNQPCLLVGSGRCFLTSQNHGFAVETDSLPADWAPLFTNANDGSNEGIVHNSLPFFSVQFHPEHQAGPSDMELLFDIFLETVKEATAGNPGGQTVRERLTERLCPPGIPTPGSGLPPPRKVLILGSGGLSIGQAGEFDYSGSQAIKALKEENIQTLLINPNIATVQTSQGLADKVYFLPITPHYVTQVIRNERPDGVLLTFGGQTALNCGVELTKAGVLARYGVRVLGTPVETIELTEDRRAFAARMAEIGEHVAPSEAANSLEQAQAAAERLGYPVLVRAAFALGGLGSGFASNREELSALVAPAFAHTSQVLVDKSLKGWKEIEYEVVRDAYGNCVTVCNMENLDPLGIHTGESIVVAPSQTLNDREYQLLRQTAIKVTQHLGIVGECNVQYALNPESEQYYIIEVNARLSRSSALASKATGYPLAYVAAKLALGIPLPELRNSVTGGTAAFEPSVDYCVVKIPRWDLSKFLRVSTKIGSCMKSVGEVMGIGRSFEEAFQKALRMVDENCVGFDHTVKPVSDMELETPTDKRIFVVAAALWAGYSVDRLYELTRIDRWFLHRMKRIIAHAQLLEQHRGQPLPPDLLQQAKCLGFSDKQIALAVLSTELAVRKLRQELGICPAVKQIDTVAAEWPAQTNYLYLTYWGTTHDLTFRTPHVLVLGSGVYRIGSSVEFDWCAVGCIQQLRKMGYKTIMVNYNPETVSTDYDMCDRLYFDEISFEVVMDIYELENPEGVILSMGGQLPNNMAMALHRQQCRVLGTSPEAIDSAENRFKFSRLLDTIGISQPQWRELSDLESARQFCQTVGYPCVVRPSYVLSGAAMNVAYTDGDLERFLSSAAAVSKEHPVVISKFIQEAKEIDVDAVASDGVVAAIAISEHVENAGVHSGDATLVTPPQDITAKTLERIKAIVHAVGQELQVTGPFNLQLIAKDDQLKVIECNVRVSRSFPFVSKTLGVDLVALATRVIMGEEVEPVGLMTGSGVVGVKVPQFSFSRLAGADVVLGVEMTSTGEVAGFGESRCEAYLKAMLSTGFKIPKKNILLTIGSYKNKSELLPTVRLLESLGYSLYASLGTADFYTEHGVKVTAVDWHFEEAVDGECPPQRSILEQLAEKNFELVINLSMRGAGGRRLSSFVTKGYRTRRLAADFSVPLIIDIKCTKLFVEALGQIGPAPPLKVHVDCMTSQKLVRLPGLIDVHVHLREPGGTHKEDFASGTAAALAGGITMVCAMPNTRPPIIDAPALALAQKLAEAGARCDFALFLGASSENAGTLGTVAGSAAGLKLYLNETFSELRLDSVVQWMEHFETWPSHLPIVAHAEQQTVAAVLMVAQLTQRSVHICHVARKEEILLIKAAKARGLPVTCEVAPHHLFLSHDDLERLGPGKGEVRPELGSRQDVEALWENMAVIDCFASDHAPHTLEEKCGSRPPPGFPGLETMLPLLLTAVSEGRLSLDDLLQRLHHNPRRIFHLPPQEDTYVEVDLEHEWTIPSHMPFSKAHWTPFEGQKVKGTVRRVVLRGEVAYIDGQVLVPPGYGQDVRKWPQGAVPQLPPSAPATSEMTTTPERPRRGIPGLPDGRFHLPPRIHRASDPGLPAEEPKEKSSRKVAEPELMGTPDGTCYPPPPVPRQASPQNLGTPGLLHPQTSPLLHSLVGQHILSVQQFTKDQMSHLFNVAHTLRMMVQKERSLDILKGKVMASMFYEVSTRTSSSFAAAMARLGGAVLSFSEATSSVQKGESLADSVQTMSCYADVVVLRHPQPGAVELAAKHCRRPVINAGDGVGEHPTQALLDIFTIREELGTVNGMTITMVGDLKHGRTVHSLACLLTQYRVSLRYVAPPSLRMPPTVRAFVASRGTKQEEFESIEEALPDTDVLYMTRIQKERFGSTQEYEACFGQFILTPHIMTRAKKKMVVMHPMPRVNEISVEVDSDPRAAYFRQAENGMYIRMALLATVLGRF

## COc1ccc2c(c1)CCCN2C(=O)CCl [compound 2]
[1]
  isoTOP-ABPP reactivity Q96EY5_C231 FAM125A: 4.1
[2]
  isoTOP-ABPP reactivity P51649_C340 ALDH5A1: 1.9
[3]
  isoTOP-ABPP reactivity O75362_C286 ZNF217: 8.9
[4]
  isoTOP-ABPP reactivity O43175_C369 PHGDH: 20.0
[5]
  isoTOP-ABPP reactivity P27708_C73 CAD: 3.1
[6]
  isoTOP-ABPP reactivity Q9BRJ7_C88 NUDT16L1: 20.0
[7]
  isoTOP-ABPP reactivity P55265_C1224 ADAR: 9.1
[8]
  isoTOP-ABPP reactivity Q9NQ88_C114 TIGAR: 2.8
  isoTOP-ABPP reactivity Q9NQ88_C161 TIGAR: 6.0
